Read-outs that look alike come from different tables or passages of the source.
Legend:
[1] = Batch extraction of rac-propranolol with dibutyl L-(+)-tartrate / boric acid, dichloromethane/water; format: physicochemical; details: for distribution coefficient: dichloromethane with dibutyl-L-tartrate / water with boric acid
Protocol: One mobile phase was used—a 54/46 v/v methanol/water solution containing 110 mM sodium acetate adjusted to a pH of 6 using glacial acetic acid, 215 mM boric acid, and 285 mM dibutyl L-(+)-tartrate. The flow rate was 0.23 mL/min. The column was heated to 25° C. and the detection was monitored at a wavelength of 275 nm. Samples were diluted 20× in 54/46 v/v methanol/water solution containing 110 mM sodium acetate buffered to a pH of 6 with glacial acetic acid and the injection volume was 10 μL.
Batch extraction experiments were performed as follows. 2 mL of 1 mg/mL rac-Propranolol in water containing 152.1 mM boric acid was mixed with 2 mL of 152.1 mM dibutyl L-(+)-tartrate in dichloromethane. The solution was vigorously shaken for approximately 2 minutes and allowed to fully settle. 20 μL of each phase were diluted with 380 μL of 110 mM sodium acetate in a 54/46 methanol/water solution buffered to a pH of 6 using glacial acetic acid and the solute concentrations were determined by HPLC.

[2] = 1,2-Dichloroethane/water (literature), 45x molar excess dibutyl-L-tartrate and boric acid; listed as R/S-PRP; cited from earlier work
[3] = Literature (10/6/4 DCM/methanol/water ratio); cited from earlier work
[4] = Current platform (10/5/5 DCM/methanol/water ratio)
Protocol: Batch extraction experiments were performed as follows. 1 mg of each solute was added to 2 mL of dichloromethane, 1 mL of water, and 1 mL of methanol. The solution was vigorously shaken for around 2 minutes and allowed to fully settle. 100 μL of each phase were diluted with 900 μL of methanol and the solute concentrations were determined by HPLC.

[5] = Partition coefficients of delta-9- and delta-8-tetrahydrocannabinol in liquid mixtures (Examples 1-9); format: physicochemical
Protocol: The cannabinoid sample contained both delta-9-tetrahydrocannabinol with delta-8-tetrahydrocannabinol. The liquid mixtures included an organic phase as the first liquid phase and a water soluble phase as the second liquid phase. The organic phase and the water soluble phase were in 1:1 volume ratio for all analyses. Various hydrocarbons were evaluated as the organic phase. These hydrocarbons included hexane, heptane, cyclohexane, pentane, 1-hexene, toluene, benzene, 1-octadecene, and dodecane. Various amide based solvents were evaluated as the water soluble phase. These amide based solvents included formamide (F), dimethyl formamide (DMF), methyl formamide (MF), dibutyl formamide (DBF).
Example 9. A mixture of formamide (F) and dimethyl formamide (DMF) and dibutyl formamide (DBF) at a volume ratio of 1:3:1 (20% F and 60% DMF and 20% DBF) was used as the water soluble phase. Hexane was used as the organic phase. […] The partition coefficients for each component (e.g., delta-9-tetrahydrocannabinol, delta-8-tetrahydrocannabinol) in the liquid mixture were determined by calculating a ratio of the concentration of the component in the water soluble phase over concentration of the component in the organic phase.

SMILES: CC(C)NC[C@@H](O)COc1cccc2ccccc12 [R-PRP, R-propranolol]
- distribution coefficient [1]: 0.12

SMILES: CC(C)NCC(O)COc1cccc2ccccc12 (centres unmarked) [R/S-propranolol]
- Selectivity between enantiomers ([1]; Dichloromethane/water (experiment), 45x molar excess dibutyl-L-tartrate and boric acid): 2.58 ± 0.07
- Selectivity between enantiomers [2]: 2.54±0.13

SMILES: CC(C)NCC(O)COc1cccc2ccccc12 (centres unmarked) [S-PRP]
- distribution coefficient [1]: 0.30

SMILES: COc1cc(C=O)cc(OC)c1O [Syringaldehyde, syringaldehyde]
- αx/pHBA (selectivity) [3]: 17.8
- αx/pHBA (selectivity) [4]: 25.5

SMILES: CCCCCc1cc(O)c2c(c1)OC(C)(C)[C@@H]1CCC(C)=C[C@@H]21 [delta-9-tetrahydrocannabinol]
- Kd9,THC/Kd8,THC ([5]; Example 1: F:DMF (9:16) / Hexane): 1.47
- Kd9,THC/Kd8,THC ([5]; Example 2: F:DMF (9:16) / Heptane): 1.45
- Kd9,THC/Kd8,THC ([5]; Example 3: F:DMF (9:16) / Cyclohexane): 1.48
- Kd9,THC/Kd8,THC ([5]; Example 4: F:DMF (9:16) / Pentane): 1.36
- Kd9,THC/Kd8,THC ([5]; Example 5: F:DMF (9:16) / 1-Hexene): 1.37
- Kd9,THC/Kd8,THC ([5]; Example 6: F:DMF (1:1) / Dodecane): 1.39
- Kd9,THC/Kd8,THC ([5]; Example 7: F:MF (1:1) / Hexane): 1.20
- Kd9,THC/Kd8,THC ([5]; Example 8: F:MF (2:3) / Hexane): 1.23
- Kd9,THC/Kd8,THC ([5]; Example 9: F:DMF:DBF (1:3:1) / Hexane): 1.39

SMILES: O=C(O)c1ccc(O)cc1 [pHBA, para-hydroxybenzoic acid]
- αx/pHBA (selectivity) [3]: 1.00
- αx/pHBA (selectivity) [4]: 1.00

— patent US20250361219A1, “SYSTEMS AND METHODS FOR SEPARATION OF CHEMICAL SPECIES, SUCH AS CANNABINOIDS, USING MULTIPLE LIQUID PHASES” (priority 2022, published 2025)
